Paper PMC10748408 (Frontiers in Oncology, 2023)

How the values were obtained:
[1] = system: ALDH+ cells (CSCs) of mammary tumors; test: ALDH+ population estimation (Aldefluor) in tumors; format: in vivo, BALB/c mice; settings: untreated tumor 24.1%
Experimental: Mammary fat pad and tumor tissues (1 × 10^6 cells/ml) were resuspended in aldefluor™ assay buffer containing ALDH substrate and incubated for 45 minutes at 37°C. As a control, cells were resuspended in buffer containing aldefluor substrate in the presence of diethylaminobenzaldehyde (DEAB), a specific ALDH inhibitor. The fluorescent ALDH^+ cells were detected in the green fluorescence channel (520-540nm) in a flow cytometer (BD FACS Aria III). ALDH^+ and ALDH^- cells were eventually sorted using the BD Aria III Cell Sorter and sorted cells collected for further analysis (BD Biosciences, USA; [21]).

4T1 cells = test: Cell viability assay (MTT); format: cell-based, murine; settings: Mus musculus, 24 hours
Experimental: Human triple negative breast cancer cells MDA-MB-231 and murine mammary cancer cells 4T1 were obtained from National Centre for Cell Sciences, Pune, India. Cells were maintained in complete Dulbecco’s Modified Eagle Medium (DMEM) supplemented with 10% FBS and 1% penicillin/streptomycin, and incubated at 37°C in 5% CO2 - 95% humidified atmosphere. Cells in log phase of growth was used for all subsequent experiments ([21]). 1 x 10^5 viable cells were seeded in a 96-well plate. […] Following treatment, wells were washed to remove the media and 100 µl of PBS was added to each well. Finally, 10 µl of MTT solution (5 mg/mL in PBS) was added and incubated at 37°C for 3 hours. The purple crystals formed were dissolved in 150 µl of DMSO. Absorbance was measured at 570 nm in a multi-plate reader Varioskan™ Lux (Thermo Fisher Scientific, USA; [21]).

Body weight of mice = format: in vivo, BALB/c mice
Experimental: Mouse mammary 4T1 cells in passage numbers between 7 and 12 (10^4 cells/ml in 50 µl PBS) were injected into the inguinal 4th mammary fat pad of BALB/c mice ([23], [24]). Normal mice received an equal volume of sterile PBS. A palpable tumor was allowed to develop for 14 days ([24]). […] Normal (mammary fat pad surrounding the 4th inguinal mammary pad), mammary tumor, and organs like lungs, kidney, liver, and blood were collected at the end of the experimental schedule. Body weight and tumor volume of each mouse were recorded daily during the tenure of the experiment. Tumor volume was calculated using the following formula: length (mm) × width^2 (mm) × 0.52 ([25]).

normal mice = test: Serum biochemical parameters (ALT, AST, creatinine, urea) of normal mice treated with ART; format: in vivo, BALB/c mice
Experimental: Levels of alanine aminotransferase (ALT) and aspartate aminotransferase (AST) from the serum were determined using ALT and AST estimation kits (Robonik India Pvt. Ltd, India). Briefly, for ALT activity estimation, Reagent 1 (Tris Buffer, L-Alanine, Lactate Dehydrogenase) and Reagent 2 (α-ketoglutarate, NADH) was mixed (4:1) with 100 µl serum. After 60 seconds incubation, absorbance was measured at 340 nm every minute for 180 seconds (ΔA/minute). Finally, the activity was estimated using the formula: Activity of the sample = (ΔA/minute x 1746). Analysis and final calculations were carried out according to the manufacturer’s protocol ([29]) For AST activity estimation, Reagent 1 (Tris Buffer, L-Aspartate, Lactate Dehydrogenase; >600U/L, Malate dehydrogenase; >600U/L) and Reagent 2 (α-ketoglutarate, NADH) was mixed together (4:1) with 100 µl serum. After incubation for 60 seconds, absorbance was measured at 340 nm per minute for 180 seconds (ΔA/minute). Finally, the activity was estimated using the formula: Activity of the sample = (ΔA/minute x 1746). Analysis and final calculations were carried out according to the manufacturer’s protocol ([30]). For estimation of creatinine level, picric acid (0.5 ml), buffer (0.5 ml) and sample (Test)/standard (S) (0.1 ml) were mixed and absorbance was measured at 520 nm for 30 seconds and 60 seconds. The rate of change of absorbance was determined for the standard (ΔS) and test (ΔT) samples. The levels were estimated using the formula: creatinine (mg/dl) = (ΔT)/(ΔS) x 2.0 ([31]). Urea levels were estimated using specific metabolite analysis kits. Buffer (1 ml), enzyme (0.1 ml), sample (test)/standard (0.1 ml) and chromogen reagent (0.2 ml) were mixed. Absorbance was measured at 570 nm after 5 minutes of incubation of test (Abs T) and standard (Abs S) samples. The levels were estimated using the formula: Urea (mg/dl) = (AbsT)/(AbsS) x 40. Analysis and calculations were carried out according to the manufacturer’s protocol ([32]). […]

[2] = ART 6.25 mg/kg body wt, 3 weeks (21 days)
[3] = ART 12.5 mg/kg body wt, 3 weeks (21 days)
[4] = ART 25 mg/kg body wt, 3 weeks (21 days)
[5] = ART 50 mg/kg body wt, 3 weeks (21 days)

C[C@@H]1CC[C@H]2[C@@H](C)C(=O)O[C@@H]3O[C@@]4(C)CC[C@@H]1[C@]32OO4 [ART, Artemisinin]
percentage of ALDH+ cells ([1]; T+ 25: ART 25 mg/kg): 8.1%
percentage of ALDH+ cells ([1]; T+ 50: ART 50 mg/kg): 6.2%
IC50 (4T1 cells): 1000 nM
body weight (Body weight of mice; normal mice, ART 6.25-50 mg/kg, 7 days, vs vehicle): did not alter
body weight (Body weight of mice; tumor-bearing mice, ART treatment, dose-dependent): restored towards normal values
ALT (normal mice; [2]): 28.1±2.6 U/l
AST (normal mice; [2]): 29.8±4.6 U/l
Creatinine (normal mice; [2]): 0.48 ± 0.21 mg/dL
Urea (normal mice; [2]): 31.6 ± 1.9 mg/dL
ALT (normal mice; ART 6.25 mg/kg body wt, 7 days): 23.7 ± 1.8 U/l
AST (normal mice; ART 6.25 mg/kg body wt, 7 days): 27.3 ± 0.8 U/l
Creatinine (normal mice; ART 6.25 mg/kg body wt, 7 days): 0.51 ± 0.09 mg/dL
Urea (normal mice; ART 6.25 mg/kg body wt, 7 days): 24.5 ± 1.2 mg/dL
ALT (normal mice; [3]): 29.3±3.1 U/l
AST (normal mice; [3]): 31.4±2.6 U/l
Creatinine (normal mice; [3]): 0.68 ± 0.12 mg/dL
Urea (normal mice; [3]): 28.7 ± 2.3 mg/dL
ALT (normal mice; ART 12.5 mg/kg body wt, 7 days): 26.6 ± 2.2 U/l
AST (normal mice; ART 12.5 mg/kg body wt, 7 days): 29.6 ± 1.3 U/l
Creatinine (normal mice; ART 12.5 mg/kg body wt, 7 days): 0.77 ± 0.13 mg/dL
Urea (normal mice; ART 12.5 mg/kg body wt, 7 days): 26.3 ± 1.6 mg/dL
ALT (normal mice; [4]): 29.5±2.1 U/l
AST (normal mice; [4]): 28.5±2.8 U/l
Creatinine (normal mice; [4]): 0.49 ± 0.3 mg/dL
Urea (normal mice; [4]): 30.1 ± 2.6 mg/dL
ALT (normal mice; ART 25 mg/kg body wt, 7 days): 30.7 ± 1.5 U/l
AST (normal mice; ART 25 mg/kg body wt, 7 days): 31.7 ± 3.1 U/l
Creatinine (normal mice; ART 25 mg/kg body wt, 7 days): 0.62 ± 0.07 mg/dL
Urea (normal mice; ART 25 mg/kg body wt, 7 days): 28.2 ± 0.8 mg/dL
ALT (normal mice; [5]): 28.8±3.2 U/l
AST (normal mice; [5]): 30.3±1.9 U/l
Creatinine (normal mice; [5]): 0.62 ± 0.38 mg/dL
Urea (normal mice; [5]): 28.9 ± 2.1 mg/dL
ALT (normal mice; ART 50 mg/kg body wt, 7 days): 26.4 ± 2.3 U/l
AST (normal mice; ART 50 mg/kg body wt, 7 days): 29.3 ± 2.6 U/l
Creatinine (normal mice; ART 50 mg/kg body wt, 7 days): 0.71 ± 0.1 mg/dL
Urea (normal mice; ART 50 mg/kg body wt, 7 days): 27.1 ± 1.3 mg/dL
